Test system: 496974-208-R-J2-PDC complex spheroids, growth % test/control
Test: Anticancer human tumor 496974-208-R-J2-PDC patient-derived pancreatic carcinoma cell line growth inhibition [CLK]
Settings: for IC50: curve of first compound; for viability, T/C: stronger effect = lower value; active = viability on the fitted dose curve at most 10% of control; inactive = the rest
From the text: A high-throughput screen of multi-cell type tumor spheroids was designed to identify active combinations of […] and targeted small molecules. Complex spheroids include a stromal component modeled by human endothelial cells (HUVEC) and fibroblasts modeled by human mesenchymal stem cells (MSCs). The concentration ranges selected for each drug and investigational agent were based upon clinically achievable concentrations if the clinical Cmax of the agent was known.
Compounds. The drugs and investigational agents: cirtuvivint (SM08502; NSC835563), CC-671 (NSC850746), vemurafenib (NSC761431), tapotoclax (NSC804041), sotorasib (NSC818433), adagrasib (NSC831453), MRTX-1133 (NSC836407), BAY2416964 (NSC825713), copanlisib (NSC816437), inavolisib (NSC800729), abemaciclib (NSC768073), osimertinib (NSC779217), entinostat (NSC756642), eltanexor (KPT-8602, NSC794443), venetoclax (NSC766270), ceralasertib (NSC777638), bortezomib (NSC756655), olaparib (NSC753686), talazoparib (NSC767125), alisertib (NSC759677), peposertib (NSC802822), gemcitabine (NSC613327), 5-fluorouracil (NSC19893), SN-38 (NSC673596), oxaliplatin (NSC266046), paclitaxel (NSC125973), and doxorubicin (NSC123127), were obtained from the National Cancer Institute (NCI) Developmental Therapeutics Program Chemical Repository. The FDA-approved anticancer drug set is available from the Developmental Therapeutics Program at https://dtp.cancer.gov/organization/dscb/obtaining/available plates.htm. […] The stock solutions were prepared in dimethyl sulfoxide (DMSO, Sigma-Aldrich, St. Louis, MO, cat. D2650), except for the platinum complexes which were prepared in saline (Quality Biological, Gaithersburg, MD, cat. 114-055-101), at 800-fold the tested concentration and stored at -70 degrees C prior to their use. All drugs and investigational agents were tested over a range starting from a high concentration at or near the clinical Cmax and decreasing in half-log increments. If the clinical Cmax for an agent had not been determined, the highest concentration tested was 10 microM.
Cell Culture. All cells were maintained in an incubator at 37 degrees C and 5% CO2 with 95% humidity. The PDC lines were cultured according to standard operating procedures established by the NCI PDMR. Briefly, all PDCs were thawed and cultured in Matrigel-coated flasks prepared with a working solution of 1X Ham's F-12 nutrient mix, without supplementation (Invitrogen, Waltham, MA, cat. 11765054), 100 U/mL penicillin-streptomycin (Invitrogen, cat. 15140122), and 2.5% Matrigel (Corning Inc., Corning, NY, cat. 354248) for the first three passages. The 947758-054-R-J2-PDC line was cultured in 6B/Colon 1A media, which includes advanced DMEM/F-12 (Thermo Fisher Scientific, cat. 12634028), 10 mM HEPES (Thermo Fisher Scientific, cat. 15630080), 1X GlutaMAX supplement (Thermo Fisher Scientific, cat. 35050061), 0.1 mg/mL primocin (InvivoGen, cat. ant-pm-2), 10% defined fetal bovine serum, heat inactivated (HyClone Laboratories Inc., cat. SH30070.03HI), 1.25 mM N-Acetyl-L-cysteine (Sigma-Aldrich, cat. A9165), 10 mM nicotinamide (Sigma-Aldrich, cat. N0636), 1X B-27 supplement (Thermo Fisher Scientific, cat. 17504044), 1X N-2 supplement (Thermo Fisher Scientific, cat. 17502048), and 10 microM Y-27632 dihydrochloride (Tocris Bioscience, cat. 1254). The 876862-298-R-J1-PDC was cultured in 6E media, which includes all 6B/Colon 1A media components plus 50% L-WRN conditioned media (ATCC, cat. CRL-3276), 50 ng/mL recombinant human EGF recombinant protein (hEGF; Thermo Fisher Scientific, cat. PHG0311), 10 ng/mL recombinant human fibroblast growth factor 10 (hGFG-10; PeproTech, cat. 100-26), 1 ng/mL recombinant human fibroblast growth factor 2 (hFGF-2; PeproTech, cat. 100-18B), and 1 µM prostaglandin E2 (PGE2; Tocris, cat. 2296). The 227483-062-R1-J1-PDC line was cultured in Panc media, containing all 6E components except hFGF-2, with the addition of 500 nM SB-431542 (Selleckchem, cat. S1067) and 10 nM gastrin (Tocris, cat. 3006). […]

[1] = second compound 0.0316 µM, first compound 0.0316 µM
[2] = second compound 0.0316 µM, first compound 0.1 µM
[3] = second compound 0.0316 µM, first compound 0.316 µM
[4] = second compound 0.0316 µM, first compound 1 µM
[5] = second compound 0.1 µM, first compound 0.0316 µM
[6] = second compound 0.1 µM, first compound 0.1 µM
[7] = second compound 0.1 µM, first compound 0.316 µM
[8] = second compound 0.1 µM, first compound 1 µM
[9] = second compound 0.316 µM, first compound 0.0316 µM
[10] = second compound 0.316 µM, first compound 0.1 µM
[11] = second compound 0.316 µM, first compound 0.316 µM
[12] = second compound 0.316 µM, first compound 1 µM
[13] = second compound 1 µM, first compound 0.0316 µM
[14] = second compound 1 µM, first compound 0.1 µM
[15] = second compound 1 µM, first compound 0.316 µM
[16] = second compound 1 µM, first compound 1 µM
[17] = second compound 3.16 µM, first compound 0.0316 µM
[18] = second compound 3.16 µM, first compound 0.1 µM
[19] = second compound 3.16 µM, first compound 0.316 µM
[20] = second compound 3.16 µM, first compound 1 µM
[21] = second compound 10 µM, first compound 0.0316 µM
[22] = second compound 10 µM, first compound 0.1 µM
[23] = second compound 10 µM, first compound 0.316 µM
[24] = second compound 10 µM, first compound 1 µM
[25] = second compound 0.0316 µM, first compound 3.16 µM
[26] = second compound 0.0316 µM, first compound 10 µM
[27] = second compound 0.1 µM, first compound 3.16 µM
[28] = second compound 0.1 µM, first compound 10 µM
[29] = second compound 0.316 µM, first compound 3.16 µM
[30] = second compound 0.316 µM, first compound 10 µM
[31] = second compound 1 µM, first compound 3.16 µM
[32] = second compound 1 µM, first compound 10 µM
[33] = second compound 3.16 µM, first compound 3.16 µM
[34] = second compound 3.16 µM, first compound 10 µM
[35] = second compound 10 µM, first compound 3.16 µM
[36] = second compound 10 µM, first compound 10 µM
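Note: spheroids exposed to the drugs for 7 days before readout.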
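Throughout, for viability, T/C: 100% = DMSO vehicle control wells.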

CCc1c2c(nc3ccc(O)cc13)-c1cc3c(c(=O)n1C2)COC(=O)[C@]3(O)CC + CNC(=O)c1ccc(Nc2nc(OC3CCCC3)c3c(-c4ccc5nc(C)oc5c4)c[nH]c3n2)c(OC)c1
inactive: viability, T/C (second compound 0.0316 µM, first compound 0.00316 µM) 70.7% | viability, T/C (second compound 0.0316 µM, first compound 0.01 µM) 56.9% | viability, T/C [1] 38.6% | viability, T/C [2] 19% | viability, T/C (second compound 0.1 µM, first compound 0.00316 µM) 67.8% | viability, T/C (second compound 0.1 µM, first compound 0.01 µM) 54% | viability, T/C [5] 36% | viability, T/C [6] 21.2% | viability, T/C (second compound 0.316 µM, first compound 0.00316 µM) 69.8% | viability, T/C (second compound 0.316 µM, first compound 0.01 µM) 53.5% | viability, T/C [9] 35% | viability, T/C [10] 19.2% | viability, T/C (second compound 1 µM, first compound 0.00316 µM) 60.5% | viability, T/C (second compound 1 µM, first compound 0.01 µM) 52.6% | viability, T/C [13] 31.2% | viability, T/C [14] 13.5% | viability, T/C (second compound 3.16 µM, first compound 0.00316 µM) 54.4% | viability, T/C (second compound 3.16 µM, first compound 0.01 µM) 42.6% | viability, T/C [17] 25.6% | viability, T/C [18] 12.9% | viability, T/C (second compound 10 µM, first compound 0.00316 µM) 50% | viability, T/C (second compound 10 µM, first compound 0.01 µM) 38.9% | viability, T/C [21] 24.4% | viability, T/C [22] 11.9%
< 0.00316 µM: IC50 (second compound 10 µM)
0.0126 µM: IC50 (second compound 0.316 µM)
0.0152 µM: IC50 (second compound 0.0316 µM)
0.0127 µM: IC50 (second compound 0.1 µM)
0.0112 µM: IC50 (second compound 1 µM)
0.00484 µM: IC50 (second compound 3.16 µM)
active: viability, T/C [3] 12.1% | viability, T/C [4] 3.81% | viability, T/C [7] 9.65% | viability, T/C [8] 2.79% | viability, T/C [11] 7.42% | viability, T/C [12] 3.21% | viability, T/C [15] 5.29% | viability, T/C [16] 2.81% | viability, T/C [19] 4.63% | viability, T/C [20] 2.2% | viability, T/C [23] 3.68% | viability, T/C [24] 6.41%

CC1COCCN1c1cc(C2(S(C)(=N)=O)CC2)nc(-c2ccnc3[nH]ccc23)n1 (stereo unspecified) + CN1CCN(c2cc(C(=O)Nc3cc4cc(-c5cnn(C)c5)ccc4cn3)ccn2)CC1
active: viability, T/C [9] 7.43% | viability, T/C [10] 5.54% | viability, T/C [11] 5.89% | viability, T/C [12] 5.38% | viability, T/C [29] 4.22% | viability, T/C [30] 5.13% | viability, T/C [13] 0.53% | viability, T/C [14] 0.67% | viability, T/C [15] 2.64% | viability, T/C [16] 0.45% | viability, T/C [31] 0.65% | viability, T/C [32] 1.19% | viability, T/C [17] 0.65% | viability, T/C [18] 0.51% | viability, T/C [19] 1.73% | viability, T/C [20] 0.46% | viability, T/C [33] 0.61% | viability, T/C [34] 0.43% | viability, T/C [21] 0.36% | viability, T/C [22] 0.42% | viability, T/C [23] 1.59% | viability, T/C [24] 0.41% | viability, T/C [35] 1.27% | viability, T/C [36] 1.47%
< 0.0316 µM: IC50 (second compound 0.316 µM) | IC50 (second compound 1 µM) | IC50 (second compound 3.16 µM) | IC50 (second compound 10 µM)
inactive: viability, T/C [1] 107% | viability, T/C [2] 99.8% | viability, T/C [3] 102% | viability, T/C [4] 82.8% | viability, T/C [25] 53.3% | viability, T/C [26] 34.5% | viability, T/C [5] 94.5% | viability, T/C [6] 83.4% | viability, T/C [7] 73.3% | viability, T/C [8] 70.1% | viability, T/C [27] 35.6% | viability, T/C [28] 22.4%
3.82 µM: IC50 (second compound 0.0316 µM)
1.93 µM: IC50 (second compound 0.1 µM)

Nc1ccn(C2OC(CO)C(O)C2(F)F)c(=O)n1 (stereo unspecified) + CNC(=O)c1ccc(Nc2nc(OC3CCCC3)c3c(-c4ccc5nc(C)oc5c4)c[nH]c3n2)c(OC)c1
0.279 µM: IC50 (second compound 3.16 µM)
2.76 µM: IC50 (second compound 1 µM)
> 10 µM: IC50 (second compound 0.0316 µM) | IC50 (second compound 0.1 µM) | IC50 (second compound 0.316 µM)
inactive: viability, T/C [1] 94.5% | viability, T/C [2] 80% | viability, T/C [3] 67% | viability, T/C [4] 65.4% | viability, T/C [25] 68.5% | viability, T/C [26] 58.5% | viability, T/C [5] 75.3% | viability, T/C [6] 80.7% | viability, T/C [7] 64.6% | viability, T/C [8] 62.9% | viability, T/C [27] 60.7% | viability, T/C [28] 54% | viability, T/C [9] 63.3% | viability, T/C [10] 74.2% | viability, T/C [11] 69.9% | viability, T/C [12] 54.8% | viability, T/C [29] 59.6% | viability, T/C [30] 65.2% | viability, T/C [13] 66.4% | viability, T/C [14] 62.5% | viability, T/C [15] 66.6% | viability, T/C [16] 53.5% | viability, T/C [31] 44.4% | viability, T/C [32] 54.7% | viability, T/C [17] 63.1% | viability, T/C [18] 59.8% | viability, T/C [19] 49.2% | viability, T/C [20] 41% | viability, T/C [33] 42.1% | viability, T/C [34] 43.7% | viability, T/C [21] 52.8% | viability, T/C [22] 49% | viability, T/C [23] 44.4% | viability, T/C [24] 39.6% | viability, T/C [35] 40.6% | viability, T/C [36] 43.1%
0.0606 µM: IC50 (second compound 10 µM)

Reference: PubChem BioAssay AID2060615 (Molecular Pharmacology Branch, DTP, NCI, 2025)
